SMILES strings stand for the structures. Where a name gives a salt, the structure may show the parent alone.

The experiment relates to HCV replicon (NS3-NS5B regions of HCV type 1b) in Huh-7 luc/neo cells. The experiment in a line: HCV replicon assay, stable replicon cell reporter assay (Huh-Luc, luciferase). The experiment is classed as cell-based. The conditions noted are these: incubation of three days, luciferase activity. An excerpt:
The compounds of the present invention were examined for activity in the inhibition of HCV RNA replication in a cellular assay. […] The cellular assay was based on a bicistronic expression construct, as described by Lohmann et al. (1999) Science vol. 285 pp. 110-113 with modifications described by Krieger et al. (2001) Journal of Virology 75: 4614-4624, in a multi-target screening strategy. In essence, the method is as follows.
The assay utilized the stably transfected cell line Huh-7 luc/neo (hereafter referred to as Huh-Luc; kindly provided by Dr Ralf Bartenschlager, Reblikon GmBh, Germany). This cell line harbors an RNA encoding a bicistronic expression construct comprising the wild type NS3-NS5B regions of HCV type 1b translated from an Internal Ribosome Entry Site (IRES) from encephalomyocarditis virus (EMCV), preceded by a reporter portion (FfL-luciferase), and a selectable marker portion (neo^R, neomycine phosphotransferase). The construct was bordered by 5′ and 3′ NTRs (non-translated regions) from HCV type 1b. Continued culture of the replicon cells in the presence of G418 (neo^R) is dependent on the replication of the HCV RNA. The stably transfected replicon cells that express HCV RNA, which replicates autonomously and to high levels, encoding inter alia luciferase, were used for screening the antiviral compounds.
The replicon cells were plated in 384 well plates in the presence of the test and control compounds which were added in various concentrations. Following an incubation of three days, HCV replication was measured by assaying luciferase activity (using standard luciferase assay substrates and reagents and a Perkin Elmer ViewLux™ ultraHTS microplate imager). Replicon cells in the control cultures have high luciferase expression in the absence of any inhibitor. The inhibitory activity of the compound on luciferase activity was monitored on the Huh-Luc cells, enabling a dose-response curve for each test compound. EC50 values were then calculated, which value represents the amount of the compound required to decrease by 50% the level of detected luciferase activity, or more specifically, the ability of the genetically linked HCV replicon RNA to replicate (Table 1).

For `CC(=O)Nc1nc2ccc(S(=O)(=O)N(CC(C)C)CC(O)C(Cc3ccccc3)NC(=O)OCc3cncs3)cc2o1` (stereo not shown) [Compound 1, {3-[(2-Acetylamino-benzooxazole-6-sulfonyl)-isobutyl-amino]-1-benzyl-2-hydroxy-propyl}-carbamic acid thiazol-5-ylmethyl ester], where the note is “Hepatitis C virus, Huh-7, 72 h”, the EC50 (commonly the concentration giving half of the maximal effect) was 2 to 10 µM.
Same read-out and setting: with `CCOC(=O)Nc1nc2ccc(S(=O)(=O)N(CC(C)C)CC(O)C(Cc3ccccc3)NC(=O)OCc3cncs3)cc2o1` (stereo not shown) [Compound 2, (6-{[2-Hydroxy-4-phenyl-3-(thiazol-5-ylmethoxycarbonyl-amino)-butyl]-isobutyl-sulfamoyl}-benzooxazol-2-yl)-carbamic acid ethyl ester] the figure was 10 to 32 µM.
On the same count and under the same terms, with `CC(C)CN(CC(O)C(Cc1ccccc1)NC(=O)OCc1cncs1)S(=O)(=O)c1ccc2nc(NC(=O)c3ccc(O)nc3)oc2c1` (stereo not shown) [Compound 3, [1-Benzyl-2-hydroxy-3-({2-[(6-hydroxy-pyridine-3-carbonyl)-amino]-benzooxazole-6-sulfonyl}-isobutyl-amino)-propyl]-carbamic acid thiazol-5-ylmethyl ester] the figure was less than 2 µM; with `CC(C)CN(CC(O)C(Cc1ccccc1)NC(=O)OCc1cncs1)S(=O)(=O)c1ccc2nc(NC(=O)c3cccnc3)oc2c1` (stereo not shown) [Compound 4, [1-Benzyl-2-hydroxy-3-(isobutyl-{2-[(pyridine-3-carbonyl)-amino]-benzooxazole-6-sulfonyl}-amino)-propyl]-carbamic acid thiazol-5-ylmethyl ester], 2 to 10 µM.
Still for that read-out and setting: in the case of `CC(C)CN(CC(O)C(Cc1ccccc1)NC(=O)OCc1cncs1)S(=O)(=O)c1ccc2nc(N3CCCC3)oc2c1` (stereo not shown) [Compound 5, {1-Benzyl-2-hydroxy-3-[isobutyl-(2-pyrrolidin-1-yl-benzo-oxazole-6-sulfonyl)-amino]-propyl}-carbamic acid thiazol-5-ylmethyl ester] it was 2 to 10 µM; in that of `CC(C)CN(CC(O)C(Cc1ccccc1)NC(=O)OCc1cncs1)S(=O)(=O)c1ccc2nc(N(C)CCN3CCCC3)oc2c1` (stereo not shown) [Compound 6, {1-Benzyl-2-hydroxy-3-(isobutyl-{2-[methyl-(2-pyrrolidin-1-yl-ethyl)-amino]-benzooxazole-6-sulfonyl}-amino)-propyl]-carbamic acid thiazol-5-ylmethyl ester], 10 to 32 µM; in that of `CC(C)CN(CC(O)C(Cc1ccccc1)NC(=O)OCc1cncs1)S(=O)(=O)c1ccc2nc(NC(=O)CN3CCN(C)CC3)oc2c1` (stereo not shown) [Compound 7, [1-Benzyl-2-hydroxy-3-(isobutyl-{2-[2-(4-methyl-piperazin-1-yl)-acetylamino]-benzooxazole-6-sulfonyl}-amino)-propyl]-carbamic acid thiazol-5-ylmethyl ester], 2 to 10 µM.
Molecule `CC(C)CN(CC(O)C(Cc1ccccc1)NC(=O)OCc1cncs1)S(=O)(=O)c1ccc2nc(N(C)C(=O)C3CCC(=O)N3)oc2c1` (stereo not shown) [Compound 8, [1-Benzyl-2-hydroxy-3-(isobutyl-{2-[methyl-(5-oxo-pyrrolidine-2-carbonyl)-amino]-benzooxazole-6-sulfonyl}-amino)-propyl]-carbamic acid thiazol-5-ylmethyl ester] yielded an EC50 (Hepatitis C virus, Huh-7, 72 h) of 10 to 32 µM.
Molecule `CC(C)CN(CC(O)C(Cc1ccccc1)NC(=O)OCc1cncs1)S(=O)(=O)c1ccc2nc(N(C)C(=O)c3ccncc3)oc2c1` (stereo not shown) [Compound 9, [1-Benzyl-2-hydroxy-3-(isobutyl-{2-[methyl-(pyridine-4-carbonyl)-amino]-benzooxazole-6-sulfonyl}-amino)-propyl]-carbamic acid thiazol-5-ylmethyl ester] had an EC50 (Hepatitis C virus, Huh-7, 72 h) of 10 to 32 µM.
Same read-out and setting: with `CC(C)CN(CC(O)C(Cc1ccccc1)NC(=O)OCc1cncs1)S(=O)(=O)c1ccc2nc(N(C)C(=O)c3ccoc3)oc2c1` (stereo not shown) [Compound 10, [1-Benzyl-3-({2-[(furan-3-carbonyl)-methyl-amino]-benzo-oxazole-6-sulfonyl}-isobutyl-amino)-2-hydroxy-propyl]-carbamic acid thiazol-5-ylmethyl ester] the figure was 2 to 10 µM; with `CC(C)CN(CC(O)C(Cc1ccccc1)NC(=O)OCc1cncs1)S(=O)(=O)c1ccc2nc(NC(=O)C3CCCN3C)oc2c1` (stereo not shown) [Compound 11, [1-Benzyl-2-hydroxy-3-(isobutyl-{2-[(1-methyl-pyrrolidine-2-carbonyl)-amino]-benzooxazole-6-sulfonyl}-amino)-propyl]-carbamic acid thiazol-5-ylmethyl ester], 2 to 10 µM; with `CC(C)CN(CC(O)C(Cc1ccccc1)NC(=O)OCc1cncs1)S(=O)(=O)c1ccc2ncn(Cc3ccccc3)c2c1` (stereo not shown) [Compound 12, [1-Benzyl-3-[(3-benzyl-3H-benzoimidazole-5-sulfonyl)-isobutyl-amino]-2-hydroxy-propyl}-carbamic acid thiazol-5-ylmethyl ester], 2 to 10 µM.
Where the note is “Hepatitis C virus, Huh-7, 72 h”, `CC(C)CN(CC(O)C(Cc1ccccc1)NC(=O)OCc1cncs1)S(=O)(=O)c1ccc2nc(N)sc2c1` (stereo not shown) [Compound 13, {3-[(2-Amino-benzothiazole-6-sulfonyl)-isobutyl-amino]-1-benzyl-2-hydroxy-propyl}-carbamic acid thiazol-5-ylmethyl ester] returned an EC50 of 2 to 10 µM.
On the same count and under the same terms, with `CC(C)CN(CC(O)C(Cc1ccccc1)NC(=O)OCc1cncs1)S(=O)(=O)c1ccc2nc(NCCN(C)C)sc2c1` (stereo not shown) [Compound 14, (1-Benzyl-3-{[2-(2-dimethylamino-ethylamino)-benzo-thiazole-6-sulfonyl]-isobutyl-amino}-2-hydroxy-propyl)-carbamic acid thiazol-5-ylmethyl ester] the figure was 2 to 10 µM; with `CC(C)CN(CC(O)C(Cc1ccccc1)NC(=O)OCc1cncs1)S(=O)(=O)c1ccc2nc(NCCN3CCCC3)sc2c1` (stereo not shown) [Compound 15, (1-Benzyl-2-hydroxy-3-{isobutyl-[2-(2-pyrrolidin-1-yl-ethyl-amino)-benzothiazole-6-sulfonyl]-amino}-propyl)-carbamic acid thiazol-5-ylmethyl ester], 2 to 10 µM.
Still for that read-out and setting: in the case of `CC(C)CN(CC(O)C(Cc1ccccc1)NC(=O)OCc1cncs1)S(=O)(=O)c1ccc2nc(NCCCN(C)C)sc2c1` (stereo not shown) [Compound 17, (1-Benzyl-3-{[2-(3-dimethylamino-propylamino)-benzo-thiazole-6-sulfonyl]-isobutyl-amino}-2-hydroxy-propyl)-carbamic acid thiazol-5-ylmethyl ester] it was 10 to 32 µM; in that of `CC(C)CN(CC(O)C(Cc1ccccc1)NC(=O)OCc1cncs1)S(=O)(=O)c1ccc2nc(NCCN3CCNCC3)sc2c1` (stereo not shown) [Compound 18, (1-Benzyl-2-hydroxy-3-{isobutyl-[2-(2-piperazin-1-yl-ethyl-amino)-benzothiazole-6-sulfonyl]-amino}-propyl)-carbamic acid thiazol-5-ylmethyl ester], 2 to 10 µM.
Consider `CC(C)CN(CC(O)C(Cc1ccccc1)NC(=O)OCc1cncs1)S(=O)(=O)c1ccc2nc(N)oc2c1` (stereo not shown) [Compound 19, {3-[(2-Amino-benzooxazole-6-sulfonyl)-isobutyl-amino]-1-benzyl-2-hydroxy-propyl}-carbamic acid thiazol-5-ylmethyl ester], for which the EC50 was in the range of 2 to 10 µM.
On to `CC(C)CN(CC(O)C(Cc1ccccc1)NC(=O)OCc1cncs1)S(=O)(=O)c1ccc2nc[nH]c2c1` (stereo not shown) [Compound 20, {3-[(3H-Benzoimidazole-5-sulfonyl)-isobutyl-amino]-1-benzyl-2-hydroxy-propyl}-carbamic acid thiazol-5-ylmethyl ester], for which the EC50 (Hepatitis C virus, Huh-7, 72 h) is 10 to 32 µM.
Still for that read-out and setting: in the case of `CC(=O)N(C)c1nc2ccc(S(=O)(=O)N(CC(C)C)CC(O)C(Cc3ccccc3)NC(=O)OCc3cncs3)cc2s1` (stereo not shown) [Compound 21, (3-{[2-(Acetyl-methyl-amino)-benzothiazole-6-sulfonyl]-isobutyl-amino}-1-benzyl-2-hydroxy-propyl)-carbamic acid thiazol-5-ylmethyl ester] it was 10 to 32 µM.
On the same count and under the same terms, with `Nc1nc2ccc(S(=O)(=O)N(Cc3ccccn3)CC(O)C(Cc3ccccc3)NC(=O)OCc3cncs3)cc2o1` (stereo not shown) [Compound 22, {3-[(2-Amino-benzooxazole-6-sulfonyl)-pyridin-2-ylmethyl-amino]-1-benzyl-2-hydroxy-propyl}-carbamic acid thiazol-5-ylmethyl ester trifluoroacetate salt] the figure was greater than 32 µM.
In the case of `CC(C)CN(CC(O)C(Cc1ccccc1)NC(=O)OCc1cncs1)S(=O)(=O)c1ccc2nc(NC(=O)C3CCC(=O)N3)oc2c1` (stereo not shown) [Compound 23, [1-Benzyl-2-hydroxy-3-(isobutyl-{2-[(5-oxo-pyrrolidine-2-carbonyl)-amino]-benzooxazole-6-sulfonyl}-amino)-propyl]-carbamic acid thiazol-5-yl methyl ester], the half-maximal effective concentration (EC50) is 10 to 32 µM.

For the origin of these results see patent publication US20080234288A1, “Hcv Inhibiting Sulfonamides” (priority 2003, published 2008).
